Patent publication US12655116B2, “Substituted isophthalic acid diamides” (Bayer Aktiengesellschaft, priority 2020, dated 2026)

How the values were obtained:
VIOTR [1] = assay: Post-emergence herbicidal action against VIOTR; format: in vivo, Viola tricolor
Method in brief: (§1)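 Percent herbicidal action is rated by eye about 3 weeks after treatment against untreated controls, where 100% means dead plants and 0% means like controls. Plants in sandy loam are sprayed on green parts at the one-leaf stage with aqueous WP or EC preparations at 600 to 800 l/ha plus 0.2% wetting agent.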

DIGSA [2] = assay: Pre-emergence herbicidal action against DIGSA; format: in vivo, Digitaria sanguinalis
Method in brief: (§2)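 Seeds sown in sandy loam, soil-covered; compound sprayed on soil surface pre-emergence. Application: WP/EC, 600–800 l/ha, 0.2% wetting agent. Readout: visual % damage at 3 weeks.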

AMARE [3] = assay: Post-emergence herbicidal action against AMARE; format: in vivo, Amaranthus retroflexus; settings: 20 g/ha, visual assessment about 3 weeks after treatment, 100% = plants have died, 0% = like control plants
Method in brief: as §1

AVEFA = assay: Pre-emergence herbicidal action against AVEFA; format: in vivo, Avena fatua; settings: 80 g/ha, pre-emergence
Method in brief: as §2

ABUTH [4] = assay: Pre-emergence herbicidal action against ABUTH; format: in vivo, Abutilon theophrasti
Method in brief: as §2

VIOTR [5] = assay: Pre-emergence herbicidal action against VIOTR; format: in vivo, Viola tricolor
Method in brief: as §2

STEME [6] = assay: Pre-emergence herbicidal action against STEME; format: in vivo, Stellaria media
Method in brief: as §2

MATIN [7] = assay: Pre-emergence herbicidal action against MATIN; format: in vivo, Matricaria inodora
Method in brief: as §2

ABUTH [8] = assay: Post-emergence herbicidal action against ABUTH; format: in vivo, Abutilon theophrasti; settings: visual assessment about 3 weeks after treatment vs untreated controls
Method in brief: as §1

VERPE [9] = assay: Pre-emergence herbicidal action against VERPE; format: in vivo, Veronica persica
Method in brief: as §2

AMARE [10] = assay: Pre-emergence herbicidal action against AMARE; format: in vivo, Amaranthus retroflexus
Method in brief: as §2

POLCO [11] = assay: Post-emergence herbicidal action against POLCO; format: in vivo, Polygonum convolvulus; settings: dosage 20 g/ha
Method in brief: as §1

STEME [12] = assay: Post-emergence herbicidal action against STEME; format: in vivo, Stellaria media; settings: 20 g/ha
Method in brief: as §1

SETVI [13] = assay: Pre-emergence herbicidal action against SETVI; format: in vivo, Setaria viridis; settings: Setaria viridis, 504 h
Method in brief: as §2

VERPE [14] = assay: Post-emergence herbicidal action against VERPE; format: in vivo, Veronica persica; settings: Veronica persica, 504 h
Method in brief: as §1

ECHCG [15] = assay: Pre-emergence herbicidal action against ECHCG; format: in vivo, Echinochloa crus-galli; settings: Echinochloa crus-galli, 504 h
Method in brief: as §2

ALOMY [16] = assay: Pre-emergence herbicidal action against ALOMY; format: in vivo, Alopecurus myosuroides; settings: Alopecurus myosuroides, 504 h, pre-emergence
Method in brief: as §2

MATIN [17] = assay: Post-emergence herbicidal action against MATIN; format: in vivo, Matricaria inodora; settings: Tripleurospermum inodorum, 504 h
Method in brief: as §1

ECHCG [18] = assay: Post-emergence herbicidal action against ECHCG; format: in vivo, Echinochloa crus-galli; settings: Echinochloa crus-galli, 504 h
Method in brief: as §1

PHBPU = assay: Pre-emergence herbicidal action against PHBPU; format: in vivo, Pharbitis purpurea; settings: Ipomoea purpurea, 504 h
Method in brief: as §2

DIGSA [19] = assay: Post-emergence herbicidal action against DIGSA; format: in vivo, Digitaria sanguinalis; settings: Digitaria sanguinalis, 504 h
Method in brief: as §1

POLCO [20] = assay: Pre-emergence herbicidal action against POLCO; format: in vivo, Polygonum convolvulus; settings: Fallopia convolvulus, 504 h, dosage 80 g/ha
Method in brief: as §2

SETVI [21] = assay: Post-emergence herbicidal action against SETVI; format: in vivo, Setaria viridis; settings: Setaria viridis, 504 h
Method in brief: as §1

ALOMY [22] = assay: Post-emergence herbicidal action against ALOMY; format: in vivo, Alopecurus myosuroides; settings: Alopecurus myosuroides, 504 h, dosage 20 g/ha, visual assessment about 3 weeks after treatment vs untreated controls
Method in brief: as §1

[23] = 80 g/ha, scored visually after 3 weeks vs untreated controls (100% = plants have died, 0% = like control plants)

**Q.** What does the source list for `CCCn1nnnc1NC(=O)c1ccc(S(C)(=O)=O)c(C(=O)NC2CC2)c1Cl` [Example 3-125]?
**A.** Post-emergence action against VIOTR in % (VIOTR [1]; 20 g/ha): 80%; Pre-emergence action against DIGSA in % (DIGSA [2]; dosage 80 g/ha): 80%; Post-emergence action at 20 g/ha against AMARE in % (AMARE [3]): 90%; Pre-emergence action against AVEFA in % (AVEFA): 80%; Pre-emergence action against ABUTH (herbicidal activity) (ABUTH [4]; [23]): 100%; Pre-emergence action against VIOTR in % (VIOTR [5]; dosage 80 g/ha): 100%; Pre-emergence action against STEME in % (STEME [6]; dosage 20 g/ha): 90%; Pre-emergence action against STEME in % (STEME [6]; dosage 80 g/ha): 100%; Pre-emergence action against MATIN in % (MATIN [7]; dosage 20 g/ha): 100%; Pre-emergence action against MATIN in % (MATIN [7]; dosage 80 g/ha): 100%; Post-emergence action against ABUTH in % (ABUTH [8]; dosage 20 g/ha): 80%; Pre-emergence action against VERPE in % (VERPE [9]; dosage 80 g/ha): 80%; Pre-emergence action against AMARE in % (AMARE [10]; [23]): 100%; Post-emergence action against POLCO in % (POLCO [11]): 80%; Post-emergence action against STEME in % (STEME [12]): 80%

**Q.** How did the pest or weed control at 20 g/ha (SETVI [13]; dosage 20 g/ha) turn out when `CCNC(=O)c1c(C(F)(F)F)ccc(C(=O)Nc2nnnn2CC)c1C1CC1` [Example 2-287] was run?
**A.** 90%

**Q.** And the pest or weed control at 80 g/ha (SETVI [13]; dosage 80 g/ha)?
**A.** 100%

**Q.** And the pest or weed control at 5 g/ha (VIOTR [1]; Viola tricolor, 504 h, 5 g/ha)?
**A.** 80%

**Q.** What about the pest or weed control at 20 g/ha (VIOTR [1]; Viola tricolor, 504 h, 20 g/ha) of the same compound?
**A.** 90%

**Q.** And the pest or weed control at 20 g/ha (DIGSA [2]; Digitaria sanguinalis, 504 h, dosage 20 g/ha)?
**A.** 100%

**Q.** What about the pest or weed control at 80 g/ha (DIGSA [2]; Digitaria sanguinalis, 504 h, dosage 80 g/ha) of the same compound?
**A.** 100%

**Q.** What about the pest or weed control at 20 g/ha (AMARE [3]; Amaranthus retroflexus, 504 h) of the same compound?
**A.** 100%

**Q.** What about the pest or weed control at 5 g/ha (VERPE [14]; 5 g/ha) of the same compound?
**A.** 80%

**Q.** What about the pest or weed control at 20 g/ha (VERPE [14]; 20 g/ha) of the same compound?
**A.** 100%

**Q.** What about the pest or weed control at 20 g/ha (ECHCG [15]; 20 g/ha) of the same compound?
**A.** 90%

**Q.** What about the pest or weed control at 80 g/ha (ECHCG [15]; 80 g/ha) of the same compound?
**A.** 100%

**Q.** What about the pest or weed control at 80 g/ha (ALOMY [16]; [23]) of the same compound?
**A.** 90%

**Q.** And the pest or weed control at 20 g/ha (ALOMY [16]; 20 g/ha, scored visually after 3 weeks, 100% = plants have died, 0% = like control plants)?
**A.** 80%

**Q.** What about the pest or weed control at 80 g/ha (AVEFA; Avena fatua, 504 h) of the same compound?
**A.** 80%

**Q.** And the pest or weed control at 80 g/ha (ABUTH [4]; Abutilon theophrasti, 504 h, 80 g/ha, scored visually after 3 weeks vs untreated controls (100% = plants have died, 0% = like control plants))?
**A.** 100%

**Q.** And the pest or weed control at 20 g/ha (ABUTH [4]; Abutilon theophrasti, 504 h, dosage 20 g/ha, scored visually after 3 weeks vs untreated controls, 100% = plants have died, 0% = like control plants, read-out: Pre-emergence action against ABUTH (herbicidal activity in percent))?
**A.** 100%

**Q.** And the pest or weed control at 20 g/ha (VIOTR [5]; Viola tricolor, 504 h, dosage 20 g/ha)?
**A.** 100%

**Q.** What about the pest or weed control at 80 g/ha (VIOTR [5]; Viola tricolor, 504 h, dosage 80 g/ha) of the same compound?
**A.** 100%

**Q.** What about the pest or weed control at 5 g/ha (MATIN [17]; dosage 5 g/ha) of the same compound?
**A.** 90%

**Q.** What about the pest or weed control at 20 g/ha (MATIN [17]; dosage 20 g/ha) of the same compound?
**A.** 90%

**Q.** And the pest or weed control at 5 g/ha (ECHCG [18]; dosage 5 g/ha)?
**A.** 80%

**Q.** And the pest or weed control at 20 g/ha (ECHCG [18]; dosage 20 g/ha)?
**A.** 80%

**Q.** What about the pest or weed control at 20 g/ha (MATIN [7]; Tripleurospermum inodorum, 504 h, dosage 20 g/ha) of the same compound?
**A.** 100%

**Q.** What about the pest or weed control at 80 g/ha (MATIN [7]; Tripleurospermum inodorum, 504 h, dosage 80 g/ha) of the same compound?
**A.** 100%

**Q.** What about the pest or weed control at 5 g/ha (ABUTH [8]; Abutilon theophrasti, 504 h, dosage 5 g/ha) of the same compound?
**A.** 80%

**Q.** And the pest or weed control at 20 g/ha (ABUTH [8]; Abutilon theophrasti, 504 h, dosage 20 g/ha)?
**A.** 80%

**Q.** And the pest or weed control at 20 g/ha (PHBPU; dosage 20 g/ha)?
**A.** 80%

**Q.** What about the pest or weed control at 80 g/ha (PHBPU; dosage 80 g/ha) of the same compound?
**A.** 80%

**Q.** What about the pest or weed control at 5 g/ha (DIGSA [19]; 5 g/ha) of the same compound?
**A.** 90%

**Q.** And the pest or weed control at 20 g/ha (DIGSA [19]; 20 g/ha)?
**A.** 90%

**Q.** What about the pest or weed control at 20 g/ha (VERPE [9]; Veronica persica, 504 h, dosage 20 g/ha) of the same compound?
**A.** 90%

**Q.** What about the pest or weed control at 80 g/ha (VERPE [9]; Veronica persica, 504 h, dosage 80 g/ha) of the same compound?
**A.** 100%

**Q.** What about the pest or weed control at 20 g/ha (AMARE [10]; Amaranthus retroflexus, 504 h, 20 g/ha, scored visually after 3 weeks vs untreated controls, 100% = plants have died, 0% = like control plants) of the same compound?
**A.** 100%

**Q.** What about the pest or weed control at 80 g/ha (AMARE [10]; Amaranthus retroflexus, 504 h, 80 g/ha, scored visually after 3 weeks vs untreated controls, 100% = plants have died, 0% = like control plants) of the same compound?
**A.** 100%

**Q.** What about the pest or weed control at 20 g/ha (POLCO [11]; Fallopia convolvulus, 504 h) of the same compound?
**A.** 100%

**Q.** And the pest or weed control at 80 g/ha (POLCO [20])?
**A.** 80%

**Q.** What about the pest or weed control at 5 g/ha (SETVI [21]; dosage 5 g/ha) of the same compound?
**A.** 80%

**Q.** And the pest or weed control at 20 g/ha (SETVI [21]; dosage 20 g/ha)?
**A.** 90%

**Q.** What about the pest or weed control at 20 g/ha (ALOMY [22]) of the same compound?
**A.** 90%
